These results are taken from article PMC10497752, “Heparins are potent inhibitors of ectonucleotide pyrophosphatase/phospho-diesterase-1 (NPP1) – a promising target for the immunotherapy of cancer” (Frontiers in Immunology, 2023).

Structures are written as SMILES.

This assay concerns ectonucleotidases expressed in U87 cell membrane preparations. The experiment in a line: Enzymatic assay on U87 cell membrane preparations (adenosine formation, CE). Conditions: 10 µg, 30 min 37°C, substrate 6 to 500 µM. Type of assay: biochemical, human. On the procedure:
U87 glioblastoma cells were grown in cell culture dishes until reaching a fully covered confluent cell layer. Cells were cultivated at 37°C and 5% CO2 in DMEM with additions of 10% FCS, 1% penicillin/streptomycin (P/S) mixture and 1% L-glutamine. When confluent, the cell culture media was carefully removed and cells were frozen at -20°C overnight. The cells were then scraped off with a cell scraper using 2-3 mL of buffer (5 mM Tris, 2 mM EDTA, pH 7.4), homogenized and centrifuged for 10 min at 1000 g. The supernatant was collected and centrifuged for 60 min at 48000 g and 4°C. The pellet was then resuspended twice with Tris buffer, pH 7.4, followed by vortexing and centrifugation. The whole procedure was performed on ice. Finally, the pellet was resuspended and homogenized. A protein concentration of 1.5 mg/mL was determined with the Bradford method ([35]), and the protein was kept at -20°C until used. The enzymatic assay was performed by incubating the membrane preparation and the substrate at 37°C and 500 rpm for 30 min, followed by heat inactivation at 95°C for 5 min. For the determination of kinetic parameters, several substrate concentrations (from 6 to 500 µM of ATP or AMP) were utilized and incubated with 10 µg of membrane preparation for 30 min at 37°C, followed by heat inactivation. Capillary electrophoresis (CE) was used for analysis and quantification of the enzymatic product according to published procedures ([11], [36]). For the determination of the enzymatic activity 400 µM of ATP were employed, and three different amounts of membrane preparation (6, 10 and 30 µg of protein) were utilized. A positive control using the known NPP1 inhibitor PSB-POM-141 (20 µM) was performed ([19]). Data were obtained from three independent experiments each in duplicate measurements. […] Controls were run in parallel.

A word on the Km: it is the substrate concentration at which the rate is half of its maximum. Regarding `Nc1ncnc2c1ncn2[C@@H]1O[C@H](COP(=O)(O)O)[C@@H](O)[C@H]1O` [AMP], the Km amounted to 38 µM. The result for `Nc1ncnc2c1ncn2[C@@H]1O[C@H](COP(=O)(O)OP(=O)(O)OP(=O)(O)O)[C@@H](O)[C@H]1O` [ATP] reads 83 µM.
